Laboratory results from patent publication US10202339B2, “Therapeutic compounds and compositions” (AGIOS PHARMACEUTICALS, INC., priority 2012, dated 2019).

Biological target: IDH2 R140Q (Homo sapiens (Human), UniProt P48735, R140Q)
Test: IDH2 R140Q enzymatic cofactor depletion assay (diaphorase/resazurin)
Assay type: biochemical
Conditions: IDH2 R140Q enzyme, one hour preincubation with compound, one hour reaction; read-out: Enz R140Q
Outline: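 Enzyme preincubated with compound 1 h at room temperature, then reaction started with 50 μM NADPH and 6.3 mM α-KG and run 1 h at room temperature. Remaining NADPH measured by diaphorase (36 μg/ml)/resazurin (60 μM) stop mix, fluorescence read at Ex544/Em590 after 1 min.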

IDH2 R140Q, sequence (P48735 40-452 R140Q): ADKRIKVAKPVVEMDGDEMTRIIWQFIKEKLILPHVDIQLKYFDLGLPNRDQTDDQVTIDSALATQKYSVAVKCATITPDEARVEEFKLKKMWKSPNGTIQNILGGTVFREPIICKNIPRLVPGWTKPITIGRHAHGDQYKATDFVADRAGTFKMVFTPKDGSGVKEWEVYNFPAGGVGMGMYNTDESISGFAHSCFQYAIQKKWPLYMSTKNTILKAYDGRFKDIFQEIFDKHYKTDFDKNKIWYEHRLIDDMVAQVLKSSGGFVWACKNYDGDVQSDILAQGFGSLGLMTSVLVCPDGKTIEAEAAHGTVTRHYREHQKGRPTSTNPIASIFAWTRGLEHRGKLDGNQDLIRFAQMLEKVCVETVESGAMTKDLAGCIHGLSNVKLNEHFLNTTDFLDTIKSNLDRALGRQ

Row | Compound | IC50 [nM]
1 | O=C(Nc1cccc(C(F)(F)F)c1)Nc1cc(S(=O)(=O)Nc2ccc(O)cc2)ccc1-c1ccsc1 [Compound 146, N-(4-hydroxyphenyl)-4-(thiophen-3-yl)-3-(3-(3-(trifluoromethyl)phenyl)ureido)benzenesulfonamide] | 1000 to 10000
2 | Cc1cccc(NC(=O)Nc2cc(S(=O)(=O)Nc3ccccc3)ccc2-c2ccsc2)c1 [Compound 3, N-phenyl-4-(thiophen-3-yl)-3-(3-(m-tolyl)ureido)benzenesulfonamide] | 100 to 1000
3 | Cc1cc(NC(=O)Nc2cc(S(=O)(=O)NCC(F)(F)F)ccc2-c2ccccc2)n(C)n1 [Compound 96] | 1000 to 10000
4 | O=C(Nc1cccc(C(F)(F)F)c1)Nc1cc(S(=O)(=O)NC2CC2)ccc1N1CCOCC1 [Compound 348, N-cyclopropyl-4-morpholino-3-(3-(3-(trifluoromethyl)phenyl)ureido)benzenesulfonamide] | 1000 to 10000
5 | O=C(Nc1cc(F)ccc1Cl)Nc1cc(S(=O)(=O)NCC(F)(F)F)ccc1-c1ccccc1 [Compound 90, 2-(3-(2-chloro-5-fluorophenyl)ureido)-N-(2,2,2-trifluoroethyl)-[1,1′-biphenyl]-4-sulfonamide] | 100 to 1000
6 | O=C(Nc1cccc(Cl)c1)Nc1cc(S(=O)(=O)Nc2ccccc2)ccc1-c1ccsc1 [Compound 8, 3-(3-(3-chlorophenyl)ureido)-N-phenyl-4-(thiophen-3-yl)benzenesulfonamide] | 100 to 1000
7 | 3′-methyl-N-morpholino-2-(3-(3-(trifluoromethyl)phenyl)ureido)-[1,1′-biphenyl]-4-sulfonamide [Compound 49] | 100 to 1000
8 | CS(=O)(=O)c1cccc(-c2ccc(S(=O)(=O)Nc3ccccc3)cc2NC(=O)Nc2cccc(C(F)(F)F)c2)c1 [Compound 58] | 1000 to 10000
9 | CC1CCCC(NC(=O)Nc2cc(S(=O)(=O)NCC(F)(F)F)ccc2-c2ccccc2)C1 (centres unmarked) [Compound 71, 2-(3-(3-methylcyclohexyl)ureido)-N-(2,2,2-trifluoroethyl)-[1,1′-biphenyl]-4-sulfonamide] | 100 to 1000

Next, values leading:

Row | IC50 [nM] | Compound
10 | 1000 to 10000 | CC1CCC(NC(=O)Nc2cc(S(=O)(=O)Nc3ccccc3)ccc2-c2ccsc2)CC1 (centres unmarked) [Compound 24]
11 | 100 to 1000 | O=C(Nc1cccc(C(F)(F)F)c1)Nc1cc(S(=O)(=O)Nc2ccccc2)ccc1-c1nccs1 [Compound 359]
12 | 100 to 1000 | O=C(Nc1cccc(Cl)c1)Nc1cc(S(=O)(=O)NCC(F)(F)F)ccc1-c1ccccc1 [Compound 88, 2-(3-(3-chlorophenyl)ureido)-N-(2,2,2-trifluoroethyl)-[1,1′-biphenyl]-4-sulfonamide]
13 | 100 to 1000 | O=C(Nc1cc(Cl)ccc1F)Nc1cc(S(=O)(=O)NCC(F)(F)F)ccc1-c1ccccc1 [Compound 74, 2-(3-(5-chloro-2-fluorophenyl)ureido)-N-(2,2,2-trifluoroethyl)-[1,1′-biphenyl]-4-sulfonamide]
14 | 100 to 1000 | CCOc1ncc(S(=O)(=O)NCC(F)(F)F)cc1NC(=O)Nc1cc(C(F)(F)F)ccn1 [Compound 202, 6-ethoxy-N-(2,2,2-trifluoroethyl)-5-(3-(4-(trifluoromethyl)pyridine-2-yl)ureido)pyridine-3-sulfonamide]
15 | < 100 | O=C(Nc1cccc(C(F)(F)F)c1)Nc1cc(S(=O)(=O)NCC(F)(F)F)cnc1OCC1CC1 [Compound 197, 6-(cyclopropylmethoxy)-N-(2,2,2-trifluoroethyl)-5-(3-(3-(trifluoromethyl)phenyl)ureido)pyridine-3-sulfonamide]
16 | 100 to 1000 | O=C(Nc1cccc(C(F)(F)F)c1)Nc1cc(S(=O)(=O)NCC2CC2)ccc1C1CCCCO1 (centres unmarked) [Compound 162, N-(cyclopropylmethyl)-4-(tetrahydro-2H-pyran-2-yl)-3-(3-(3-(trifluoromethyl)phenyl)ureido)benzene sulfonamide]
17 | 1000 to 10000 | O=C(Nc1cccc(C(F)(F)F)c1)Nc1cc(S(=O)(=O)N2CCOCC2)cnc1N1CCOCC1 [Compound 356]
